This passage reports T/C results from PubChem BioAssay AID272 (DTP/NCI, 2004).

The subject of the assay is Lewis lung carcinoma i.m., BDF1 mice, T/C %. The experiment in a line: NCI In Vivo Anticancer Drug Screen. Data for tumor model Lewis Lung Carcinoma (intramuscular) in B6D2F1 (BDF1) mice. The essentials:
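Transplantable tumour model; readout survival or tumour size; value = treated (T) / vehicle control (C).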

Structures are written as SMILES. Several values for one entry are separate records, joined by “and”; a condition that tells them apart may be missing. Equal entries are not always repeated. Results filed as inconclusive are left out.

Turning to `CC(CN1CC(=O)NC(=O)C1)N1CC(=O)NC(=O)C1` (stereo unspecified), the T/C reads like this: (endpoint: mean tumor weight, dose: 6.25 mg/kg/injection, schedule: Q01DX005 (ip), vehicle: Klucel (hydroxypropylcellulose) (HPC), higher = larger tumour) 61 % of control; (endpoint: mean tumor weight, dose: 6.25 mg/kg/injection, schedule: Q01DX009 (ip), vehicle: Klucel (hydroxypropylcellulose) (HPC), higher = larger tumour) 49 % of control; (endpoint: mean tumor weight, dose: 6.25 mg/kg/injection, schedule: Q01DX011 (ip), vehicle: Klucel (hydroxypropylcellulose) (HPC), higher = larger tumour) 73 % of control; (endpoint: mean tumor weight, dose: 6.25 mg/kg/injection, schedule: Q01DX017 (ip), vehicle: Klucel (hydroxypropylcellulose) (HPC), higher = larger tumour) 57 % of control; (endpoint: mean tumor weight, dose: 12.5 mg/kg/injection, schedule: Q01DX005 (ip), vehicle: Klucel (hydroxypropylcellulose) (HPC), higher = larger tumour) 62 % of control; (endpoint: mean tumor weight, dose: 12.5 mg/kg/injection, schedule: Q01DX009 (ip), vehicle: Klucel (hydroxypropylcellulose) (HPC), higher = larger tumour) 59 % of control. In addition, the T/C reads like this: (endpoint: mean tumor weight, dose: 12.5 mg/kg/injection, schedule: Q01DX011 (ip), vehicle: Klucel (hydroxypropylcellulose) (HPC), higher = larger tumour) 52 % of control; (endpoint: mean tumor weight, dose: 12.5 mg/kg/injection, schedule: Q01DX011 (ip), vehicle: steriod suspending solution, higher = larger tumour) 83 % of control and 85 % of control; (endpoint: mean tumor weight, dose: 12.5 mg/kg/injection, schedule: Q01DX017 (ip), vehicle: Klucel (hydroxypropylcellulose) (HPC), higher = larger tumour) 49 % of control; (endpoint: mean tumor weight, dose: 25.0 mg/kg/injection, schedule: Q01DX005 (ip), vehicle: Klucel (hydroxypropylcellulose) (HPC), higher = larger tumour) 50 % of control; (endpoint: mean tumor weight, dose: 25.0 mg/kg/injection, schedule: Q01DX009 (ip), vehicle: Klucel (hydroxypropylcellulose) (HPC), higher = larger tumour) 26 % of control; (endpoint: mean tumor weight, dose: 25.0 mg/kg/injection, schedule: Q01DX011 (ip), vehicle: Klucel (hydroxypropylcellulose) (HPC), higher = larger tumour) 39 % of control. For the same compound, the T/C runs as follows: (endpoint: mean tumor weight, dose: 25.0 mg/kg/injection, schedule: Q01DX017 (ip), vehicle: Klucel (hydroxypropylcellulose) (HPC), higher = larger tumour) 44 % of control; (endpoint: mean tumor weight, dose: 25.0 mg/kg/injection, schedule: Q04DX003 (ip), vehicle: Klucel (hydroxypropylcellulose) (HPC), higher = larger tumour) 99 % of control; (endpoint: mean tumor weight, dose: 25.0 mg/kg/injection, schedule: Q04DX005 (ip), vehicle: Klucel (hydroxypropylcellulose) (HPC), higher = larger tumour) 104 % of control; (endpoint: mean tumor weight, dose: 50.0 mg/kg/injection, schedule: Q01DX005 (ip), vehicle: Klucel (hydroxypropylcellulose) (HPC), higher = larger tumour) 49 % of control; (endpoint: mean tumor weight, dose: 50.0 mg/kg/injection, schedule: Q01DX009 (ip), vehicle: Klucel (hydroxypropylcellulose) (HPC), higher = larger tumour) 32 % of control; (endpoint: mean tumor weight, dose: 50.0 mg/kg/injection, schedule: Q01DX011 (ip), vehicle: Klucel (hydroxypropylcellulose) (HPC), higher = larger tumour) 14 % of control. Besides, the T/C (endpoint: mean tumor weight, dose: 50.0 mg/kg/injection, schedule: Q04DX003 (ip), vehicle: Klucel (hydroxypropylcellulose) (HPC), higher = larger tumour) was 80 % of control; the T/C (endpoint: mean tumor weight, dose: 50.0 mg/kg/injection, schedule: Q04DX005 (ip), vehicle: Klucel (hydroxypropylcellulose) (HPC), higher = larger tumour) is 85 % of control; the T/C (endpoint: mean tumor weight, dose: 100.0 mg/kg/injection, schedule: Q01DX005 (ip), vehicle: Klucel (hydroxypropylcellulose) (HPC), higher = larger tumour) is 21 % of control; the T/C (endpoint: mean tumor weight, dose: 100.0 mg/kg/injection, schedule: Q04DX003 (ip), vehicle: Klucel (hydroxypropylcellulose) (HPC), higher = larger tumour) was 70 % of control and 80 % of control; the T/C (endpoint: mean tumor weight, dose: 100.0 mg/kg/injection, schedule: Q04DX005 (ip), vehicle: Klucel (hydroxypropylcellulose) (HPC), higher = larger tumour) is 78 % of control; the T/C (endpoint: mean tumor weight, dose: 200.0 mg/kg/injection, schedule: Q04DX003 (ip), vehicle: Klucel (hydroxypropylcellulose) (HPC), higher = larger tumour) was 50 % of control and 58 % of control. The T/C runs as follows: (endpoint: mean tumor weight, dose: 200.0 mg/kg/injection, schedule: Q04DX005 (ip), vehicle: Klucel (hydroxypropylcellulose) (HPC), higher = larger tumour) 56 % of control; (endpoint: mean tumor weight, dose: 400.0 mg/kg/injection, schedule: Q04DX003 (ip), vehicle: Klucel (hydroxypropylcellulose) (HPC), higher = larger tumour) 6 % of control; (endpoint: mean tumor weight, dose: 400.0 mg/kg/injection, schedule: Q04DX005 (ip), vehicle: Klucel (hydroxypropylcellulose) (HPC), higher = larger tumour) 7 % of control; (endpoint: median survival time, dose: 6.25 mg/kg/injection, schedule: Q01DX005 (ip), vehicle: Klucel (hydroxypropylcellulose) (HPC), higher = longer survival) 111 % of control; (endpoint: median survival time, dose: 6.25 mg/kg/injection, schedule: Q01DX009 (ip), vehicle: Klucel (hydroxypropylcellulose) (HPC), higher = longer survival) 105 % of control; (endpoint: median survival time, dose: 6.25 mg/kg/injection, schedule: Q01DX011 (ip), vehicle: Klucel (hydroxypropylcellulose) (HPC), higher = longer survival) 117 % of control. Besides, the T/C (endpoint: median survival time, dose: 6.25 mg/kg/injection, schedule: Q01DX017 (ip), vehicle: Klucel (hydroxypropylcellulose) (HPC), higher = longer survival) is 113 % of control; the T/C (endpoint: median survival time, dose: 12.5 mg/kg/injection, schedule: Q01DX005 (ip), vehicle: Klucel (hydroxypropylcellulose) (HPC), higher = longer survival) was 96 % of control; the T/C (endpoint: median survival time, dose: 12.5 mg/kg/injection, schedule: Q01DX009 (ip), vehicle: Klucel (hydroxypropylcellulose) (HPC), higher = longer survival) is 100 % of control; the T/C (endpoint: median survival time, dose: 12.5 mg/kg/injection, schedule: Q01DX011 (ip), vehicle: Klucel (hydroxypropylcellulose) (HPC), higher = longer survival) was 92 % of control; the T/C (endpoint: median survival time, dose: 12.5 mg/kg/injection, schedule: Q01DX017 (ip), vehicle: Klucel (hydroxypropylcellulose) (HPC), higher = longer survival) was 86 % of control; the T/C (endpoint: median survival time, dose: 15.0 mg/kg/injection, schedule: Q01DX011 (ip), vehicle: carboxymethylcellulose (CMC), higher = longer survival) is 100 % of control. Further, the T/C was 94 % of control (endpoint: median survival time, dose: 25.0 mg/kg/injection, schedule: Q01DX005 (ip), vehicle: Klucel (hydroxypropylcellulose) (HPC), higher = longer survival); 111 % of control (endpoint: median survival time, dose: 25.0 mg/kg/injection, schedule: Q01DX009 (ip), vehicle: Klucel (hydroxypropylcellulose) (HPC), higher = longer survival); 98 % of control (endpoint: median survival time, dose: 25.0 mg/kg/injection, schedule: Q01DX011 (ip), vehicle: Klucel (hydroxypropylcellulose) (HPC), higher = longer survival); 98 % of control (endpoint: median survival time, dose: 25.0 mg/kg/injection, schedule: Q04DX003 (ip), vehicle: Klucel (hydroxypropylcellulose) (HPC), higher = longer survival); 103 % of control (endpoint: median survival time, dose: 25.0 mg/kg/injection, schedule: Q04DX005 (ip), vehicle: Klucel (hydroxypropylcellulose) (HPC), higher = longer survival); 105 % of control (endpoint: median survival time, dose: 30.0 mg/kg/injection, schedule: Q01DX011 (ip), vehicle: carboxymethylcellulose (CMC), higher = longer survival). Besides, the T/C runs as follows: (endpoint: median survival time, dose: 50.0 mg/kg/injection, schedule: Q01DX005 (ip), vehicle: Klucel (hydroxypropylcellulose) (HPC), higher = longer survival) 105 % of control; (endpoint: median survival time, dose: 50.0 mg/kg/injection, schedule: Q01DX009 (ip), vehicle: Klucel (hydroxypropylcellulose) (HPC), higher = longer survival) 94 % of control; (endpoint: median survival time, dose: 50.0 mg/kg/injection, schedule: Q01DX011 (ip), vehicle: Klucel (hydroxypropylcellulose) (HPC), higher = longer survival) 113 % of control; (endpoint: median survival time, dose: 50.0 mg/kg/injection, schedule: Q04DX003 (ip), vehicle: Klucel (hydroxypropylcellulose) (HPC), higher = longer survival) 96 % of control; (endpoint: median survival time, dose: 50.0 mg/kg/injection, schedule: Q04DX005 (ip), vehicle: Klucel (hydroxypropylcellulose) (HPC), higher = longer survival) 100 % of control; (endpoint: median survival time, dose: 100.0 mg/kg/injection, schedule: Q01DX001 (ip), vehicle: other, higher = longer survival) 89 % of control. Moreover, the T/C is, setting by setting: (endpoint: median survival time, dose: 100.0 mg/kg/injection, schedule: Q01DX001 (ip), vehicle: steriod suspending solution, higher = longer survival) 93 % of control; (endpoint: median survival time, dose: 100.0 mg/kg/injection, schedule: Q01DX005 (ip), vehicle: Klucel (hydroxypropylcellulose) (HPC), higher = longer survival) 119 % of control; (endpoint: median survival time, dose: 100.0 mg/kg/injection, schedule: Q04DX003 (ip), vehicle: Klucel (hydroxypropylcellulose) (HPC), higher = longer survival) 90 % of control and 108 % of control (2×); (endpoint: median survival time, dose: 100.0 mg/kg/injection, schedule: Q04DX005 (ip), vehicle: Klucel (hydroxypropylcellulose) (HPC), higher = longer survival) 101 % of control; (endpoint: median survival time, dose: 200.0 mg/kg/injection, schedule: Q01DX001 (ip), vehicle: other, higher = longer survival) 86 % of control; (endpoint: median survival time, dose: 200.0 mg/kg/injection, schedule: Q01DX001 (ip), vehicle: steriod suspending solution, higher = longer survival) 93 % of control. Besides, the T/C runs as follows: (endpoint: median survival time, dose: 200.0 mg/kg/injection, schedule: Q04DX003 (ip), vehicle: Klucel (hydroxypropylcellulose) (HPC), higher = longer survival) 111 % of control and 115 % of control and 117 % of control; (endpoint: median survival time, dose: 200.0 mg/kg/injection, schedule: Q04DX005 (ip), vehicle: Klucel (hydroxypropylcellulose) (HPC), higher = longer survival) 115 % of control; (endpoint: median survival time, dose: 400.0 mg/kg/injection, schedule: Q01DX001 (ip), vehicle: other, higher = longer survival) 76 % of control; (endpoint: median survival time, dose: 400.0 mg/kg/injection, schedule: Q04DX003 (ip), vehicle: Klucel (hydroxypropylcellulose) (HPC), higher = longer survival) 123 % of control; (endpoint: median survival time, dose: 800.0 mg/kg/injection, schedule: Q01DX001 (ip), vehicle: other, higher = longer survival) 78 % of control; (endpoint: median survival time, dose: 800.0 mg/kg/injection, schedule: Q01DX001 (ip), vehicle: steriod suspending solution, higher = longer survival) 87 % of control. The T/C (endpoint: median survival time, dose: 800.0 mg/kg/injection, schedule: Q04DX003 (ip), vehicle: Klucel (hydroxypropylcellulose) (HPC), higher = longer survival) was 29 % of control.

In the case of `CCN(CC)CCN1C(=O)c2cccc3cccc(c23)C1=O`, the T/C runs as follows: (endpoint: mean tumor weight (est.), dose: 27.5 mg/kg/injection, schedule: Q01DX011 (ip), vehicle: saline, higher = larger tumour) 76 % of control; (endpoint: mean tumor weight (est.), dose: 55.0 mg/kg/injection, schedule: Q01DX011 (ip), vehicle: saline, higher = larger tumour) 55 % of control; (endpoint: mean tumor weight (est.), dose: 110.0 mg/kg/injection, schedule: Q01DX011 (ip), vehicle: saline, higher = larger tumour) 64 % of control.

Take `COc1cc([C@@H]2c3cc4c(c(O)c3C[C@H]3COC(=O)[C@@H]32)OCO4)cc(OC)c1OC`: the T/C reads like this: (endpoint: mean tumor weight (est.), dose: 0.5 mg/kg/injection, schedule: Q01DX011 (ip), vehicle: Klucel (hydroxypropylcellulose) (HPC), higher = larger tumour) 106 % of control; (endpoint: mean tumor weight (est.), dose: 2.0 mg/kg/injection, schedule: Q01DX011 (ip), vehicle: Klucel (hydroxypropylcellulose) (HPC), higher = larger tumour) 93 % of control.
